Assay results reported in US20070191288A1, “Treatments for Benign Tumors, Cancers, Neoplasias, and/or Other Inflammatory Disorders or Diseases” (priority 2002, published 2007).

What was measured:
lipoma = assay: Effects of topiramate on lipoma in a dog; type: in vivo; settings: 12-year-old female German Shorthaired Pointer (30.8 kg), large lipoma on right rib cage; topiramate 25 mg/day once per day, 59 days versus 24 days
Procedure: FIG. 1A, depicts the size of a lipoma on a dog treated with topiramate for 24 days. FIG. 1B illustrates the reduction in lipoma size on the dog after topiramate had been administered for 59 days (25 mg/day administered once per day).

[1] = test system: simple and complex partial seizures and secondarily generalized seizures; settings: clinical trials of human epilepsy; adjunctive therapy or monotherapy; cited from earlier work

## CC1(C)O[C@@H]2[C@@H](CO[C@@]3(COS(N)(=O)=O)OC(C)(C)O[C@@H]23)O1 [topiramate, 2,3:4,5-bis-O-(1-methylethylidene)-β-D-fructopyranose sulfamate]
lipoma
  reduction in lipoma size/mass: shrunk considerably
[1]
  efficacy in treating simple and complex partial seizures and secondarily generalized seizures: effective
